Test results reported in patent US10154992B2, “Compounds and methods for treating HIV infection” (THE REGENTS OF THE UNIVERSITY OF CALIFORNIA, priority 2016, dated 2018).
≈ marks a conversion by molar mass, not a printed value. Like-named read-outs stand apart in the source and are kept apart here.

What was measured:
[1] = MTT cell viability run in parallel with the Tat-hybrid assay; format: cell-based; settings: human, Tat-hybrid reporter cell lines (HeLa); for CC50 at 48 h: Table 5, read-out: Tat hybrid TC50; for EC50 at 48 h: Table 6, second 'EC50' entry of the cell, values D/E
Procedure: (§1) Cells were counted and plated into white 384-well or 96-well cell-culture treated assay plates and compounds were added. After 48 hours, the cells were prepared for luminescence assays that were performed on a plate reader (Tecan Evolution or MD Analyst). The cytotoxicity of each compound was determined in parallel via MTT-based cell viability assays.
as §1, with “Tat hybrid reporter assay. […] Previously characterized thienopyridines and diaminoacridine were used as controls. Cells” for “Cells”, “384-well” for “384-well or 96-well”, “lumincescence” for “luminescence”, “assays. […]” for “assays.”

HIV-1 isolate NL4-3 = assay: Virus spreading / replication assay in Jurkat cells, p24 ELISA; format: cell-based
Procedure: (§2) Virus spreading assay. Jurkat (E6-1) cells (NIH AIDS Reagent Program) were cultured in RPMI media supplemented with 25 mM HEPES pH 7.4, 10% heat-inactivated fetal calf serum (Hyclone, Waltham Mass.), and 1% penicillin/streptomycin. 2.5×10^5 Jurkat cells were inoculated with 250 pg p24 in 250 μl media in a 96-well flat bottom polystyrene cell culture microplate. Input virus was removed after 18 hours via washing cells phosphate-buffered saline (PBS). Cells were resuspended in 250 μl of media containing compounds at the described concentrations. Cells were incubated at 37° C., 5% CO2 and supernatant samples were removed every 48 hours and replaced with fresh media containing the compounds. Viral replication was quantified using ELISA to quantify p24 viral capsid protein in the culture supernatant. Mouse monoclonal and rabbit polyclonal α-p24 antibodies used in the ELISA were obtained from the NIH AIDS Reagent Program. Toxicity was monitored using the MTT cell viability assay (Mosmann, T. (1983). J Immunol Methods 65, 55-63).

[2] = system: HIV-1 provirus in U1 cells; assay: U1 activation (latency) assay, p24 ELISA; format: cell-based
Procedure: (§3) U1 activation assay. U1 cells obtained from the AIDS Research and Reference Reagent Program were maintained under standard culture conditions in RPMI 1640 supplemented with 10% fetal bovine serum (heat inactivated), 2 mM L-glutamine, 100U/mL penicillin and 100 μg/mL streptomycin. U1 cells contain an integrated copy of a phorbol ester inducible HIV-1 provirus and addition of phytohemagglutinin (PHA) to the cell culture was used to induce virus production. On the day of the assay, the U1 cells were activated with PHA and 250,000 cells were plated in 96-well plates. Test compounds were diluted in media and applied to the cells at final concentrations from 1 to 10,000 nM. Cultures were incubated for 3 days and supernatants harvested. Cell-free virus production was measured by p24 ELISA on culture supernatant. Compound toxicity was determined by MTT cell-viability assay in parallel assays.

[3] = MTT cell viability in Jurkat replication assay; format: cell-based; settings: human, Jurkat (E6-1) cells, pH 7.4
Procedure: as §2

[4] = MTT cell viability in parallel with the U1 assay; format: cell-based; settings: human, U1 cells, read-out: U1 TC50
Procedure: as §3

[5] = system: Tat-hybrid reporter cell lines (HeLa); assay: MTT cell viability run in parallel with the Tat-hybrid assay; format: cell-based; settings: Table 6; at 50,000 nM
Procedure: as §1
as §1, with “Tat hybrid reporter assay. […] Previously characterized thienopyridines and diaminoacridine were used as controls. Cells” for “Cells”, “384-well” for “384-well or 96-well”, “lumincescence” for “luminescence”, “assays. […]” for “assays.”

Caco-2 permeability = format: in vitro ADME; settings: human
Source text: (§4) We next evaluated analogs 2b, 2f, 4a, and 4e in a panel of standard in vitro ADME assays to assess drug-like properties and the potential for efficacy in animals.

[6] = Human liver microsome stability; format: in vitro ADME; settings: human liver microsomes; read-out: HLM T1/2
Source text: The more lipophilic analogs 4a and 4e also appear more prone to oxidative metabolism in the presence of human liver microsomes. This is perhaps unsurprising given the presence of methoxyphenyl (4a) and benzylic methylene (4e) functions, both potential sites of oxidative metabolism.

[7] = Aqueous solubility pH 7.4; format: physicochemical; settings: aqueous solution, pH 7.4, pH 7.4, aqueous buffer
Source text: as §4

Jurkat cells = assay: MTT cell viability in Jurkat replication assay; format: cell-based; settings: Table 5; read-out: Jurkat TC50
Procedure: as §2

[8] = Human immunodeficiency virus 1, NL43, Jurkat, Table 5, read-out: Jurkat replication IC50
[9] = Human immunodeficiency virus 1, Table 5, read-out: U1 IC50
[10] = Human immunodeficiency virus 1, Table 6, read-out: U1 IC50
[11] = Human immunodeficiency virus 1, read-out: U1 cell IC50 (nM)

SMILES	CC50 at 48 h [1]	IC50 (HIV-1 isolate NL4-3; [8])	IC50 [2, 9]	CC50 at 3 days ([4]; Table 5)	other results
NC(=O)c1cc2c(-c3ccc4ccccc4c3)cncc2s1	> 40 µM	< 0.1 µM	< 100 nM	< 40 µM	CC50 ([3]; Table 5, read-out: Jurkat TC50): < 40 µM
NC(=O)c1cc2c(-c3cnc4ccccc4c3)cncc2s1	> 40 µM	< 0.1 µM	< 100 nM	> 40 µM	CC50 ([3]; Table 5, read-out: Jurkat TC50): > 40 µM
CCc1c(C)nc2sc(C(N)=O)c(N)c2c1C					Tat hybrid cell viability at 50,000 nM [5]: Y (Y = 30-60%); EC50 at 48 h [1]: > 40 µM; IC50 [2, 10]: > 500 nM; CC50 at 3 days ([4]; Table 6): > 40 µM
NC(=O)c1sc2nccc(Nc3ccccc3)c2c1N					Tat hybrid cell viability at 50,000 nM [5]: Y (Y = 30-60%); EC50 at 48 h [1]: > 40 µM; IC50 [2, 10]: 100 to 500 nM; CC50 at 3 days ([4]; Table 6): > 40 µM
COCc1cc(C)nc2sc(C(N)=O)c(N)c12					Tat hybrid cell viability at 50,000 nM [5]: X (X = >60%); EC50 at 48 h [1]: > 40 µM; IC50 [2, 10]: > 500 nM; CC50 at 3 days ([4]; Table 6): > 40 µM
NC(=O)c1sc2nc3c(c(-c4ccco4)c2c1N)CCCC3					Tat hybrid cell viability at 50,000 nM [5]: X (X = >60%); EC50 at 48 h [1]: > 40 µM; IC50 [2, 10]: > 500 nM; CC50 at 3 days ([4]; Table 6): < 40 µM
Cc1cc(C)c2c(N)c(C(N)=O)sc2n1					Tat hybrid cell viability at 50,000 nM [5]: Z (Z = <30%); EC50 at 48 h [1]: > 40 µM; IC50 [2, 10]: > 500 nM; CC50 at 3 days ([4]; Table 6): > 40 µM
NC(=O)c1sc2cncc(N3CCCCC3)c2c1N [Compound 2b, 3-amino-4-(piperidin-1-yl)thieno[2,3-c]pyridine-2-carboxamide]					Papp (Caco-2 permeability): 50.5 ×10⁻⁶ cm/s; IC50 (HIV-1 isolate NL4-3; Human immunodeficiency virus 1, NL43, Jurkat, Table 2, NL4-3, read-out: Jurkat HIV-1 replication assay): < 0.1 µM; IC50 (HIV-1 isolate NL4-3; Human immunodeficiency virus 1, NL43, Jurkat, read-out: IC50 in the HIV replication assay): 0.0768 µM; IC50 (HIV-1 isolate NL4-3; Table 1, read-out: Jurkat HIV-1 replication assay): < 0.1 µM; IC50 [2, 11]: < 100 nM; IC50 ([2]; Human immunodeficiency virus 1, read-out: IC50 in the U1 assay): 28 nM; CC50 ([3]; Jurkat infectivity assay, read-out: TC50 (MTT cell viability)): > 40 µM; half-life [6]: 28 min; solubility [7]: 34 µM (≈ 9.4 µg/mL)
CC(=O)N1CCN(c2cncc3sc(C(N)=O)c(N)c23)CC1 [Compound 2f, 4-(4-acetylpiperazin-1-yl)-3-aminothieno[2,3-c]pyridine-2-carboxamide]					Papp (Caco-2 permeability): 9.7 ×10⁻⁶ cm/s; IC50 (HIV-1 isolate NL4-3; Human immunodeficiency virus 1, NL43, Jurkat, Table 1, read-out: Jurkat HIV-1 replication assay): > 0.5 µM; IC50 [2, 11]: 100 to 500 nM; half-life [6]: > 60 min; solubility [7]: 258 µM (≈ 82.4 µg/mL)
NC(=O)c1cc2c(-c3ccc4c(c3)CCO4)cncc2s1 [drawing 128]	> 40 µM	< 0.1 µM	< 100 nM	< 40 µM	CC50 (Jurkat cells): < 40 µM
COc1ccc(-c2cncc3sc(C(N)=O)cc23)cc1 [drawing 129]	< 40 µM	< 0.1 µM	< 100 nM	< 40 µM	CC50 ([3]; Table 5, read-out: Jurkat TC50): < 40 µM
NC(=O)c1sc2cncc(N3CCCCC3)c2c1N [drawing 134]	> 40 µM	< 0.1 µM	< 100 nM	< 40 µM	CC50 (Jurkat cells): > 40 µM
CC(=O)N1CCN(c2cncc3sc(C(N)=O)c(N)c23)CC1 [drawing 144]	> 40 µM	> 0.5 µM	100 to 500 nM	> 40 µM	CC50 ([3]; Table 5, read-out: Jurkat TC50): > 40 µM
CN(C)c1ccnc2sc(C(N)=O)c(N)c12 [drawing 152]	> 40 µM		> 500 nM	> 40 µM	
NC(=O)c1sc2cncc(-c3ccc4c(c3)OCO4)c2c1N [drawing 157]	< 40 µM		100 to 500 nM	> 40 µM	
NC(=O)c1sc2cncc(N3CCC(C(N)=O)CC3)c2c1N [drawing 158]	< 40 µM		100 to 500 nM	> 40 µM	
NC(=O)c1sc2cncc(N3CCC(F)(F)CC3)c2c1N [drawing 159]	< 40 µM		100 to 500 nM	> 40 µM	
NC(=O)c1sc2cncc(N3CCC4(CC3)OCCO4)c2c1N [drawing 161]	< 40 µM		100 to 500 nM	> 40 µM	
N#Cc1ccccc1-c1cncc2sc(C(N)=O)cc12 [drawing 164]	> 40 µM		> 500 nM	> 40 µM	
Cc1noc(C2CCCN(c3cncc4sc(C(N)=O)c(N)c34)C2)n1 (stereo not shown) [drawing 169]	< 40 µM		> 500 nM	> 40 µM	
